How the values were obtained:
PC3 cells [1] = test: Time dependent proliferation of PC3 cells (WST-1 assay); assay type: cell-based, human; conditions: 1 μM compound + 20 μM MTA
Experimental: PC3 cells were maintained in MEM Eagle's media supplemented with 10% fetal bovine serum, 100 units/ml penicillin, 100 μg/mL streptomycin, 0.1 mM non essential amino acids and 1 mM sodium pyruvate. Cell survival was evaluated using the WST-1 assay (Kicska G A, long Li, Hong H, et al. Proc Natl Acad Sci USA 2001; 98:4593-98). Cells were seeded onto 96 well plates at a density of 10^4 cells per well, with either no additions, 1 μM compound (2), 20 μM MTA or 1 μM compound (2)+20 μM MTA. IC50 was determined following the manufacturer's protocol (Roche Applied Science, Ind.). Cells were grown and measured in triplicate or quadruplicate and the error bars show the mean±SD of the multiple samples.

[2] = system: TRAMP (transgenic adenocarcinoma of mouse prostate) mice; test: Treatment of TRAMP mice (tumour mass, metastasis, MRI, histology, polyamines); assay type: in vivo; conditions: for tumour weight upon dissection: TRAMP mouse treated with 1 mM compound
Experimental: MRI experiments were performed using a 9.4T 21 cm bore horizontal bore magnet (Magnex Scientific) Varian INOVA MRI system (Fremont, Calif.) equipped with a 28 mm inner diameter quadrature birdcage coil. Mice were anesthetized with isoflurane inhalation anesthesia (1-1.5% in 100% O2 administered via a nose cone) and positioned in the MRI coil. Body temperature was maintained (37-38° C.) using a homeothermic warming system. After acquiring scout images, multi-slice spin-echo imaging with an echo time of 18 ms and a repetition time of 400 ms ms was performed. A 40 mm field of view with a 256×256 matrix size was used. Nine to 15 slices along the transverse, sagittal, and coronal planes were acquired in each multi-slice experiment with a slice thickness of 1 mm and the gap between slices of 0.5 mm. MRI data were processed off-line with MATLAB-based MRI analysis software.
(§1) Spent media and perchloric acid extracts of both PC3 cells and tissue samples were subjected to purification via cation exchange chromatography and dansyl-derivatized with minor changes. Disposable 10 ml BIO-RAD columns were centrifuged at 4,000 rpm for 3 minutes. Sodium carbonate used for derivatization was adjusted to pH 9.3 and the concentration of dansyl-chloride was adjusted to 100 mM. Dansyl-polyamines were quantitated by a Waters HPLC/Fluorescence system. A Phenomenex Luna 5μ C18 column was used with a mobile phase of 30% acetonitrile in a 50 mM ammonium acetate buffer at pH 6.8 (eluent A) and 100% acetonitrile (eluent B). Fluorescence detection was monitored by excitation at 338 nm and emission at 500 nm.
Long-Term: Sterile solutions of 100 μM compound (2) (pH ˜6.4). Water bottles were autoclaved prior to filling with sterile inhibitor solutions. Water consumption was monitored every other day, with fresh inhibitor solution being administered to prevent bacterial growth. Mice were control-sacrificed and tissues (genitourinary system, liver, lungs) were collected for histology and polyamine analysis. Mass and dimensions of excised genitourinary system tumours were recorded. Sections of small intestine were also removed for toxicity analysis via H&E staining.

PC3 cells [3] = test: Quantitation of polyamines in PC3 cells and spent media (HPLC fluorescence); assay type: cell-based, human
Experimental: PC3 cells were cultured and treated in triplicate as follows: untreated control, 20 μM substrate (MTA) alone, 1 μM compound (2) alone, or a combination of both substrate and inhibitor. Both cells and spent media were harvested at 1, 6, and 12 days for polyamine analysis by HPLC fluorescence.
as §1

Cal27 cells = Cal27 cells grown 8 days with compound and MTA; assay type: cell-based; conditions: 1 μM compound + 20 μM MTA, G2/M arrest and apoptosis
Experimental: FIGS. 25A and 25B show Cal27 cells grown for 8 days as control (untreated), in the presence of 20 μM MTA, 1 μM compound (2) alone or in combination (1 μM compound (2)+20 μM MTA).

[4] = TRAMP mice, 100 μM in drinking water, n=12, 29 ± 7 weeks treated

CSC[C@H]1CN(Cc2c[nH]c3c(N)ncnc23)C[C@@H]1O [compound (2)]
cell proliferation (PC3 cells [1]): reduces cell proliferation | Metastatic Cancer [2, 4]: 8% | Tumor Size [2, 4]: 1.7 ± 0.8 g | prostate cancer progression ([2]; TRAMP mice, alone or in combination with MTA): inhibited | toxicity: intestinal crypts (H&E), hair loss, GI problems ([2]; TRAMP mice, long-term treatment): No alterations, inflammations, or irregularities were observed | tumour weight upon dissection ([2]; dissection at 34 weeks of age (Panel E)): 0.41 g | tumour weight upon dissection ([2]; dissection at 39 weeks of age (Panel F)): 0.64 g | TRAMP liver or GUS polyamine levels ([2]; extended treatment, 100 μM in drinking water): no significant alterations | size and incidence of preinvasive tumors, incidence of invasive cancer and metastasis ([2]; treated TRAMP mice, histology): decreased | intracellular PUT levels (PC3 cells [3]; 1 μM compound + 20 μM MTA, 1 day): 3.03×10^−3±2.86×10^−2 pmoles PUT/mg protein | SPN levels in spent media (PC3 cells [3]; compound + MTA, 1 day): slightly decreased | increase in intracellular PUT levels vs control (PC3 cells [3]; compound + MTA, 1 day): 6 fold | increase in intracellular SPD levels vs control (PC3 cells [3]; compound + MTA, 1 day): ~2.5 fold | increase in spent media PUT levels vs control (PC3 cells [3]; compound + MTA, 1 day): 2 fold | intracellular SPD levels (PC3 cells [3]; compound + MTA, 1 day): 7.19×10^−3±4.38×10^−2 pmoles SPD/mg protein | spent media PUT levels (PC3 cells [3]; compound + MTA, 1 day): 1.19×10^3±2.04×10^−1 pmoles PUT/mL spent media | PUT level vs control (PC3 cells [3]; compound + MTA, 6 days): elevated | SPD level vs control (PC3 cells [3]; compound + MTA, 6 days): elevated | decrease in cellular SPN levels vs control (PC3 cells [3]; compound + MTA, 6 days): roughly 0.5 fold | levels of PUT in spent media (PC3 cells [3]; compound + MTA, 6 days): 2.41×10^−3±7.35×10^−1 pmoles PUT/mL spent media | levels of PUT in spent media relative to control (PC3 cells [3]; compound + MTA, 6 days): almost double that of the control | cellular SPD levels (PC3 cells [3]; compound + MTA, day 12): 9.05×10^−3±1.09×10^−3 pmoles SPD/mg protein | intracellular PUT levels vs controls (PC3 cells [3]; compound + MTA, day 12): significantly higher than controls | number of viable Cal27 cells (Cal27 cells): decreased
